{
  "source": "paper PMC9130233",
  "about": "“An inhibitor of RORγ for chronic pulmonary obstructive disease treatment” (Scientific Reports, 2022)",
  "tested_on": "RORγt and IL-17A mRNA in human PBMC",
  "experiment": "RT-PCR mRNA expression in TCR stimulated human PBMC",
  "type": "cell-based",
  "conditions": "PCCR-1 treated PBMCs, healthy subjects",
  "description": "For RT-PCR from human PBMC, 5X 10^6 PBMCs were seeded in 6well pre-coated human anti-CD3 mAb (10 µg/mL) plate, post 30 min of compound treatment cells were stimulated with human anti-CD28 mAb (2 µg/mL). After 48 h cells were pelleted, washed with PBS and total RNA was extracted using TRI reagent. 3 µg of DNase treated RNA was reverse transcribed using iScript select cDNA synthesis kit (Biorad Hercules, CA, USA) to produce single-stranded cDNA. RT-PCR was performed with an real-time thermal cycler Eppendorf Mastercycler Ep (Eppendorf AG, Hamburg, Germany) using iTaq SYBR Green Supermix with ROX kit (Biorad Hercules, CA, USA) with human IL-17A specific primers: 5’- […]-3’(sense primer) and 5'-[…]-3' (antisense primer) and human RORγt specific primers: 5’-[…]-3’ (sense primer) and 5’-[…]-3’ (antisense primer). RT-PCR reaction was carried out for 40 cycles at 95 °C for 15 s, 60 °C for 15 s and 60 °C for 40 s. Data was interpreted using 2(-∆CT) Livak method of analysis.",
  "data": [
    {"smiles": "CCn1c(C(C)(C)Oc2ccc(F)cc2F)nc2cc(NC(=O)Cc3ccc(S(=O)(=O)CC)cc3)ccc21", "note": "[PCCR-1]", "values": [
      {"measurement": "IL-17A mRNA expression", "result": "significantly inhibited"},
      {"measurement": "RORγt mRNA expression", "result": "downregulation"}
    ]}
  ]
}
